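Compound exposure: 48 hours, 5 concentrations, 96-well plates. Definition used: TGI = concentration required for complete inhibition of growth.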
Assays:
Test in all cases: NCI anticancer screen, dose series, 48 h
SNB-75 CNS = tested on: SNB-75 CNS
MDA-MB-435 = tested on: MDA-MB-435
RPMI-8226 leukemia = tested on: RPMI-8226 leukemia
SK-MEL-2 melanoma = tested on: SK-MEL-2 melanoma
MCF7 breast = tested on: MCF7 breast
SF-295 CNS = tested on: SF-295 CNS
MOLT-4 leukemia = tested on: MOLT-4 leukemia
K-562 leukemia = tested on: K-562 leukemia
NCI-H226 lung = tested on: NCI-H226 lung
SK-OV-3 ovarian = tested on: SK-OV-3 ovarian
BT-549 breast = tested on: BT-549 breast
786-0 renal = tested on: 786-0 renal
RXF 393 renal = tested on: RXF 393 renal
HOP-62 NSCLC = tested on: HOP-62 NSCLC
NCI/ADR-RES ovarian = tested on: NCI/ADR-RES ovarian
KM12 colon = tested on: KM12 colon
SF-268 CNS = tested on: SF-268 CNS
HS 578T breast = tested on: HS 578T breast
MDA-MB-231 breast = tested on: MDA-MB-231 breast
TK-10 renal = tested on: TK-10 renal
A549 NSCLC = tested on: A549 NSCLC
HT29 colon = tested on: HT29 colon
DU-145 prostate = tested on: DU-145 prostate
PC-3 prostate = tested on: PC-3 prostate
A498 renal = tested on: A498 renal
CCRF-CEM leukemia = tested on: CCRF-CEM leukemia
COLO 205 colon = tested on: COLO 205 colon
SK-MEL-28 melanoma = tested on: SK-MEL-28 melanoma
OVCAR-4 ovarian = tested on: OVCAR-4 ovarian
MALME-3M melanoma = tested on: MALME-3M melanoma
IGROV1 ovarian = tested on: IGROV1 ovarian
ACHN renal = tested on: ACHN renal
HCC-2998 colon = tested on: HCC-2998 colon
U251 CNS = tested on: U251 CNS
OVCAR-8 ovarian = tested on: OVCAR-8 ovarian
UO-31 renal = tested on: UO-31 renal
UACC-257 melanoma = tested on: UACC-257 melanoma
M14 melanoma = tested on: M14 melanoma
SW-620 colon = tested on: SW-620 colon
NCI-H522 lung = tested on: NCI-H522 lung
NCI-H460 lung = tested on: NCI-H460 lung
SNB-19 CNS = tested on: SNB-19 CNS
SN12C renal = tested on: SN12C renal
MDA-N = tested on: MDA-N
T-47D breast = tested on: T-47D breast
LOX IMVI melanoma = tested on: LOX IMVI melanoma
SK-MEL-5 melanoma = tested on: SK-MEL-5 melanoma
SR leukemia = tested on: SR leukemia
EKVX NSCLC = tested on: EKVX NSCLC
OVCAR-5 ovarian = tested on: OVCAR-5 ovarian
OVCAR-3 ovarian = tested on: OVCAR-3 ovarian
UACC-62 melanoma = tested on: UACC-62 melanoma
CAKI-1 renal = tested on: CAKI-1 renal
HCT-15 colon = tested on: HCT-15 colon
HCT-116 colon = tested on: HCT-116 colon

Measured: TGI

CCc1n[nH]c(=O)n1N1C(=O)CCC1=O
> 100 µM: SNB-75 CNS | MDA-MB-435 | RPMI-8226 leukemia | SK-MEL-2 melanoma | MCF7 breast | SF-295 CNS | MOLT-4 leukemia | K-562 leukemia | NCI-H226 lung | SK-OV-3 ovarian | BT-549 breast | 786-0 renal | RXF 393 renal | HOP-62 NSCLC | NCI/ADR-RES ovarian | KM12 colon | SF-268 CNS | HS 578T breast | MDA-MB-231 breast | TK-10 renal | A549 NSCLC | HT29 colon | DU-145 prostate | PC-3 prostate | A498 renal | CCRF-CEM leukemia | COLO 205 colon | SK-MEL-28 melanoma | OVCAR-4 ovarian | MALME-3M melanoma | IGROV1 ovarian | ACHN renal | HCC-2998 colon | U251 CNS | OVCAR-8 ovarian | UO-31 renal | UACC-257 melanoma | M14 melanoma | SW-620 colon | NCI-H522 lung | NCI-H460 lung | SNB-19 CNS | SN12C renal | MDA-N | T-47D breast | LOX IMVI melanoma | SK-MEL-5 melanoma | SR leukemia | EKVX NSCLC | OVCAR-5 ovarian | OVCAR-3 ovarian | UACC-62 melanoma | CAKI-1 renal | HCT-15 colon | HCT-116 colon
